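Following 48 hours of exposure in 96-well plates, responses at five concentrations were used to interpolate endpoints linearly. The concentration for 50% growth inhibition is given as GI50. At the TGI there is no net growth.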 Some results are limits rather than exact numbers.

Broadly, the GI50 is the concentration that inhibits growth by half. What is called TGI is the concentration at which net growth stops. A high value points to less potent growth arrest.

Test systems include SK-MEL-28 melanoma; MOLT-4 leukemia; TK-10 renal; NCI/ADR-RES ovarian; K-562 leukemia; PC-3 prostate; OVCAR-8 ovarian; LOX IMVI melanoma; A498 renal; HOP-62 NSCLC.
What all share (experiment): DTP human tumour cell line panel, 48 h

On to `CCNc1cc(-c2cccc(OC(F)(F)F)c2)nc2ccc(N3CCCC3)cc12`, for which the GI50 is 1.71 µM in the assay on SK-MEL-28 melanoma; 2.08 µM with MOLT-4 leukemia; 2.58 µM with TK-10 renal; 1.83 µM in the assay on NCI/ADR-RES ovarian; 1.43 µM with K-562 leukemia; 1.48 µM in the assay on PC-3 prostate. Also, the GI50 in the assay with OVCAR-8 ovarian is 2.51 µM; in the assay on LOX IMVI melanoma it was 1.69 µM; with A498 renal, 1.07 µM; in the assay on HOP-62 NSCLC, 1.62 µM. Besides, the TGI in the assay with SK-MEL-28 melanoma stood at 3.74 µM; in the assay with MOLT-4 leukemia it was 7.08 µM; in the assay with TK-10 renal, 8.09 µM; in the assay on NCI/ADR-RES ovarian it was 6.25 µM; in the assay with K-562 leukemia it was 4.3 µM; in the assay on PC-3 prostate, 4.31 µM. Further, the TGI was 8.24 µM in the assay with OVCAR-8 ovarian, 3.26 µM in the assay with LOX IMVI melanoma, 2.76 µM with A498 renal and 3.16 µM in the assay on HOP-62 NSCLC.

For `C=CCNc1nc2c(s1)C(=O)c1ccccc1C2=O`, the concentration for total growth inhibition (TGI) in the assay on SK-MEL-28 melanoma turned out to be 32.8 µM; with MOLT-4 leukemia it was 10.6 µM; in the assay on TK-10 renal it was 34.2 µM; in the assay on NCI/ADR-RES ovarian it was 82.8 µM; in the assay on K-562 leukemia it was 35.8 µM; in the assay on PC-3 prostate, 30.3 µM. Moreover, the TGI stood at 20.1 µM in the assay with OVCAR-8 ovarian, 19.6 µM in the assay with LOX IMVI melanoma, 34 µM with A498 renal and 26.7 µM with HOP-62 NSCLC.

Regarding `NCCSSCCN`, the TGI with SK-MEL-28 melanoma, in the assay on MOLT-4 leukemia, with TK-10 renal, in the assay on NCI/ADR-RES ovarian, in the assay with K-562 leukemia and in the assay with PC-3 prostate was above 100 µM in each case. The TGI in the assay with OVCAR-8 ovarian, with LOX IMVI melanoma, in the assay on A498 renal and in the assay with HOP-62 NSCLC was above 100 µM in each case.

For the compound `COC(=O)c1cc2c3ccccc3n3c(=O)c4cc5ccc(N(S(=O)(=O)c6ccc(C)cc6)S(=O)(=O)c6ccc(C)cc6)cc5nc4c(n1)c23`, the GI50 was above 100 µM in the assay on SK-MEL-28 melanoma; 28.6 µM in the assay with MOLT-4 leukemia; 19.4 µM in the assay on TK-10 renal; above 100 µM with NCI/ADR-RES ovarian; 39.4 µM in the assay with K-562 leukemia; above 100 µM in the assay on PC-3 prostate. For the same compound, the GI50 in the assay with OVCAR-8 ovarian is above 100 µM; in the assay with LOX IMVI melanoma, 48.5 µM; with A498 renal, 34.8 µM; in the assay with HOP-62 NSCLC it was 16.1 µM. Moreover, the TGI with SK-MEL-28 melanoma was above 100 µM; with MOLT-4 leukemia, 64.5 µM; with TK-10 renal, 44 µM; in the assay on NCI/ADR-RES ovarian, above 100 µM; in the assay on K-562 leukemia, above 100 µM; in the assay on PC-3 prostate, above 100 µM. Besides, the TGI in the assay on OVCAR-8 ovarian was above 100 µM; in the assay on LOX IMVI melanoma it was above 100 µM; with A498 renal it was 70.2 µM; in the assay on HOP-62 NSCLC it was 45 µM.

With `FC(F)(c1ccc2ncccc2c1)c1nnc2ccc(-c3ccncc3)nn12`, the GI50 with SK-MEL-28 melanoma was above 100 µM; in the assay with MOLT-4 leukemia, 38.4 µM; in the assay with TK-10 renal, 73.1 µM; with NCI/ADR-RES ovarian it was 64.3 µM; in the assay with K-562 leukemia it was 52.7 µM; in the assay on PC-3 prostate it was 74.6 µM. For the same compound, the GI50 with OVCAR-8 ovarian was 84.1 µM; with LOX IMVI melanoma, 49.6 µM; in the assay with A498 renal, 19.3 µM; with HOP-62 NSCLC, 62.7 µM. In addition, the TGI with SK-MEL-28 melanoma, in the assay on MOLT-4 leukemia, with TK-10 renal, in the assay on NCI/ADR-RES ovarian, in the assay on K-562 leukemia and in the assay on PC-3 prostate was above 100 µM throughout. Also, the TGI in the assay with OVCAR-8 ovarian, in the assay on LOX IMVI melanoma, in the assay with A498 renal and in the assay with HOP-62 NSCLC was above 100 µM in each case.

In the case of `COc1ccc(C2OC(=O)c3ccc4ccccc4c32)c(C)c1` (stereo not given), the TGI was above 71.3 µM in the assay on SK-MEL-28 melanoma; above 39.8 µM in the assay with MOLT-4 leukemia; above 95.3 µM in the assay on TK-10 renal; 5.61 µM in the assay on NCI/ADR-RES ovarian; above 75.7 µM with K-562 leukemia; above 100 µM with PC-3 prostate. Moreover, the TGI in the assay on OVCAR-8 ovarian is 56.5 µM; in the assay on LOX IMVI melanoma, above 100 µM; with A498 renal it was 66.2 µM; in the assay with HOP-62 NSCLC, above 90.2 µM.

On to `CC[C@H](Nc1ncnc2nc[nH]c12)c1nc2cccc(F)c2c(=O)n1-c1ccccc1`, for which the GI50 is 13.7 µM in the assay with SK-MEL-28 melanoma; 13.9 µM with MOLT-4 leukemia; 12.5 µM with TK-10 renal; 86.8 µM in the assay on NCI/ADR-RES ovarian; 30.2 µM in the assay with K-562 leukemia; 3.32 µM with PC-3 prostate. For the same compound, the GI50 in the assay with OVCAR-8 ovarian is 44.6 µM; in the assay with LOX IMVI melanoma it was 28 µM; with A498 renal, 1.3 µM; with HOP-62 NSCLC, above 100 µM. Further, the TGI in the assay with SK-MEL-28 melanoma was above 100 µM; in the assay on MOLT-4 leukemia, above 87.4 µM; in the assay on TK-10 renal, above 100 µM; with NCI/ADR-RES ovarian, above 100 µM; with K-562 leukemia it was above 100 µM; in the assay with PC-3 prostate, above 100 µM. Moreover, the TGI with OVCAR-8 ovarian is above 100 µM; in the assay with LOX IMVI melanoma, above 100 µM; in the assay with A498 renal, 13 µM; in the assay with HOP-62 NSCLC, above 100 µM.

Values taken from PubChem BioAssay (NCI).
